Assay [1] has as its target fibroblast growth factor-1 (FGF-1) (Homo sapiens, UniProt P05230). The assay is described as follows: Co-crystallisation with FGF-1 (crystal diffraction of complexes). The assay is classed as binding. The source says: FIG. 24. 2-acetoxy-5-hydroxybenzenesulfonic acid co-crystallized with fibroblast growth factor-1. […] The compound occupies a place that is very close to that described occupied by 2,5-dihydroxybenzenesulfonic acid, the aromatic ring of which forms a […] bond with the N^ε group of lysine 132, which is marked in panel A as reference. […] In panels A and B, the protein surface is colored according to its electrostatic potential (light grey: negative charge; dark grey: positive charge; white: lack of charge).
FIG. 25. 5-acetoxy-2-hydroxybenzenesulfonic acid co-crystallized with fibroblast growth factor-1. […] The compound occupies a place that is very close to that described occupied by 2,5-dihydroxybenzenesulfonic acid, the aromatic ring of which forms a cation-π bond with the N^ε group of lysine 132, which is marked in panel A as reference. […] In panels A and B, the protein surface is colored according to its electrostatic potential (light grey: negative charge; dark grey: positive charge; white: lack of charge).
FIG. 26. 2,5-diacetoxybenzenesulfonic acid co-crystallized with fibroblast growth factor-1. […] The compound occupies a place that is very close to that described occupied by 2,5-dihydroxybenzenesulfonic acid, the aromatic ring of which forms a cation-π bond with the N^ε group of lysine 132, which is marked in panel A as reference. […] In panels A and B, the protein surface is colored according to its electrostatic potential (light grey: negative charge; dark grey: positive charge; white: lack of charge).
Based on the crystal diffraction of the FGF-1:2-acetoxy-5-hydroxybenzene sulfonic acid, FGF-1:5-acetoxy-2-hydroxybenzene sulfonic acid and FGF-1:2,5-diacetoxybenzene sulfonic acid complexes, the structures of the complexes were calculated and represented. FIGS. 24, 25 and 26, which show the surface of the dyed protein according to its electrostatic potential (light grey: negative charge; dark grey: positive charge; white: lack of charge), show the manner in which 2-acetoxy-5-hydroxybenzene sulfonic acid, 5-acetoxy-2-hydroxybenzene sulfonic acid and 2,5-diacetoxybenzene sulfonic acid interact, respectively, with FGF-1.

Assay [2] deals with methacholine induced bronchoconstriction in OVA-sensitized mice. The assay is described as follows: Experimentally induced (OVA) asthma in mice: methacholine bronchoconstriction and BAL cell count. The assay is classed as in vivo. The note with it: for methacholine induced bronchoconstriction (Penh): methacholine 5 and 20 mg/mL. How it is done: Effect of potassium 2,5-diacetoxybenzene sulfonate (DABS) on bronchoconstriction in asthmatic mice treated with methacholine. All the mice were exposed to nebulized methacholine (MC; 5 and 20 mg/ml). Bronchoconstriction was determined as the enhanced pause. (Penh), calculated as described in the corresponding example (example 13).
Effect of potassium 2,5-diacetoxybenzene sulfonate (DABS) on the inflammatory cell count in the bronchoalveolar lavage (BAL) in asthmatic mice.
6-9 week old Balb/c mice were used. The ovoalbumin (OVA)/aluminum complex was obtained after dissolving OVA (500 μg/mL) in PBS, and mixing it with an equal volume of 10% aluminum potassium sulfate at pH 6.5 for 1 hour. After centrifuging the pellet (750×g for 5 minutes) the OVA/aluminum pellet was resuspended in distilled water. On day 0, the mice were injected intraperitoneally injected with 100 μg of OVA/aluminum. Eight days later, the mice were anesthetized and exposed to 250 μg of OVA. Later, they were administered 125 μg of OVA on days 15, 18 and 21. […].
The following treatments were administered to the animals: (i.p.) vehicle from day 2, potassium 2,5-diacetoxybencene sulfonate (DABS; 100 mg/kg/day, i.p.) from day 2, DABS (100 mg/kg/day, i.p.) from day 8 and Combivent (20 μg/200 μg in aerosol) on days 20, 21 and 22, the latter as a reference treatment.
In order to evaluate the pulmonary function, the response to methacholine in conscious mice was determined, 24 hours after the last exposure to OVA. The mice were exposed to increasing methacholine concentrations (5 and 20 mg/mL) in the form of aerosol using an ultrasonic nebulizer during 2 minutes. The degree of bronchoconstriction was expressed as the enhanced pause (Penh) which correlates to the mouse air resistance, impedance and pressure within the pleura. The Penh enh was calculated using the formula Penh=[([…]/Rt−1)×(PEF/PIF)], where Te is expiratory time, Rt is relaxation time, PEF is peak expiratory flow and PIF is peak inspiratory flow x 0.67 coefficient.
After measuring airway hyperreactivity, the mice were sacrificed and the bronchoalveolar lavage (BAL) of the right lung was collected. The total number of cells in the BAL fluid was determined.

A further assay relates to pterygium. The assay is described as follows: Topical treatment of pterygium in a patient. In kind it is in vivo, human. To be noted: 2.5% solution, one drop four times per day, two weeks. From the text:
FIG. 3. […] The treatment consists of the application of 4 drops of said solution daily, for two weeks.
The solution was applied topically to a patient suffering from unilateral pterygium, as one drop four times per day.

Assay [3] deals with angiogenesis induced by Helicobacter pylori in the human gastric mucosa. Kind of assay: Angiogenesis induced by Helicobacter pylori in the human gastric mucosa (biopsies). In kind it is in vivo. The note with it: 500 mg/day oral, one week, one patient. The method, then: FIG. 5. Helicobacter pylori • A) Hematoxylin-eosin staining of the gastric mucosa of a sample obtained from a patient infected with Helicobacter pylori before treatment. The arrows and the asterisk indicate the formation of neovessels in the mucosa protruding the gastric lumen through the lost epithelial layer. • B) Hematoxylin-eosin staining of the gastric mucosa of a sample obtained from the same patient infected with Helicobacter pylori after administering 500 mg of 2,5-dihydroxybenzenesulfonate (DHBS) daily for a week.
A biopsy of the gastric mucosa was performed in a patient chronically infected with Helicobacter pylori before the oral treatment with 2,5-dihydroxybenzene sulfonic acid (Dobesilate) (500 mg/day). After a week of treatment, another biopsy was performed in the patient. Both biopsies were evaluated using hematoxylin-eosin staining. […] Microscopically, the arrows and the asterisk indicate the formation of neovessels in the mucosa protruding the gastric lumen through the lost epithelial layer. […] This example illustrates that the use of DHBS is beneficial in the treatment of gastritis and angiogenesis caused by the infection with Helicobacter pylori.

This is an account of results in US9060966B2, “Use of 2,5-dihydroxybenzene derivatives for the treatment of arthritis and pain” (priority 2006, dated 2015).

“Also recorded” adds a separate entry of the source.

fibroblast growth factor-1 (FGF-1), sequence (P05230 whole entry, species assumed): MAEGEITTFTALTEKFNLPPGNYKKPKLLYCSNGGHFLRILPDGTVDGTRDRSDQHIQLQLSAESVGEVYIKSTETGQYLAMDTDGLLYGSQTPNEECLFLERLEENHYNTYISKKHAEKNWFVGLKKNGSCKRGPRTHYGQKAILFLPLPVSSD

For the compound `CC(=O)Oc1ccc(OC(C)=O)c(S(=O)(=O)[O-])c1.[K+]` [DABS, potassium 2,5-diacetoxybenzene sulfonate], in assay [1] (electron density contoured at 1σ), the “acetoxyl groups of the compound when bound to the protein” value is given as “conserve the acetoxyl groups”. In assay [1] (reference: site of 2,5-dihydroxybenzene sulfonic acid, lysine 132), the “binding site on FGF-1 in the crystal complex” value is given as “a site that is very close to the one that has been described occupied by 2,5-dihydroxybenzene sulfonic acid”. In addition, the “reduction of BAL cells compared with Combivent” value in assay [2] (100 mg/kg/day i.p.) was “even more than the treatment with Combivent”. The “methacholine induced bronchoconstriction (Penh)” value in assay [2] (100 mg/kg/day i.p. from day 2) and in assay [2] (100 mg/kg/day i.p. from day 8) was “completely prevented” each time. The “presence of cells in bronchoalveolar lavage (BAL)” value in assay [2] (100 mg/kg/day i.p., from day 2 or day 8) is “significantly reduced”. The “increase of Penh after exposure to methacholine vs saline” value in assay [2] (DABS groups, 100 mg/kg/day i.p.) is on record as “do not show a significant increase”.

Turning to `O=S(=O)(O)c1cc(O)ccc1O` [DHBS, 2,5-dihydroxybenzenesulfonic acid], the pterygium result with pterygium is “partial reversal of the pterygium”. Further, in assay [3], the “angiogenic activity in the gastric mucosa” value is recorded as “less angiogenic activity”; the “appearance of gastric mucosa / epithelial membrane, hematoxylin-eosin” value was “apparently normal; also recorded: normal appearance”; the “symptoms of congestion and erythema of the gastric mucosa” value was “the symptoms of congestion and erythema disappear”.
